Measurements as given in patent EP0316117A1 (priority 1987, dated 1989).

Key:
[1] = system: Parainfluenza virus; assay: Parainfluenza virus pre-incubated with compound, grown in fertilized hen eggs, hemagglutination read-out; format: cell-based; parameters: key: -: undetectable; ++++: indicative of hemagglutination produced by virus grown under control conditions
Description: The effectiveness of certain novel compounds was tested against Parainfluenza virus which was grown in fertilized hen eggs as determined by the method of Haywood, J. of Mol. Biol., 83, 427 (1974). The virus was at titer of 10^5 to 10^6 was incubated in the presence of 10 ug/ml or 100 u^g/ml of one of the four compounds at 37° C for 2 hours. The mixtures of the virus and anti-viral compound were diluted to a final concentration of 10-^7 then injected into 9-day old fertilized hen eggs using 5 to 6 eggs for each dilution and incubated at 37° C for 48 hours. After the incubation period, a drop of amniotic fluid from the eggs was put on mirror-glass and mixed with 2% washed hen erythrocytes. Appearance of hemagglutination indicated the presence of virus in the egg. LDso was calculated from the results. The following Table 1 presents the results that were obtained. The virus concentrations ranged from -(undetectable) to + + + + (indicative of hemagglutination produced by virus grown under control conditions).

[2] = system: Sendai virus; assay: Sendai virus assay (method as described for Parainfluenza); format: cell-based; details: reduction in the virus titer compared to control
[3] = compound 100 µg/ml, Virus Concentrations 10
[4] = compound 100 µg/ml, Virus Concentrations 10^2
[5] = compound 100 µg/ml, Virus Concentrations 10^3

| Substance | hemagglutination (presence of virus in the egg) [1, 3] | hemagglutination (presence of virus in the egg) [1, 4] | hemagglutination (presence of virus in the egg) [1, 5] | Virus Titer Reduction ([2]; 1µg/ml) | Virus Titer Reduction ([2]; 10µg/ml) | Virus Titer Reduction ([2]; 50µg/ml) | Virus Titer Reduction ([2]; 100µg/ml) | hemagglutination (presence of virus in the egg) ([1]; compound 10 µg/ml, Virus Concentrations 10^4) | hemagglutination (presence of virus in the egg) ([1]; compound 10 µg/ml, Virus Concentrations 10) | hemagglutination (presence of virus in the egg) ([1]; compound 10 µg/ml, Virus Concentrations 10^2) |
| --- | --- | --- | --- | --- | --- | --- | --- | --- | --- | --- |
| Phosphatidyl benzyl alcohol [P-BA] | - | - | - |  |  |  |  |  |  |  |
| N-(1,1-dimethyl 3-oxybutyl phosphatidyl ethanolamine [DMOB-PE] | - | - |  | less than 10% | ranged from 75-99% | ranged from 90-93% | 100% (virus undetectable) | ++++ |  |  |
| 5-Schiff Base of PE and Menadione (Vitamin K3) [PE-M] | - | - | - |  |  |  |  |  | - | - |
| 4-N-Acetyl phosphatidylethanolamine [A-PE] |  |  |  | about 50% | ranged from 75-95% | ranged from 90-99% | 100% (virus undetectable) |  |  |  |
